Source: US20150104868A1, “Methods of Maintaining and Improving Biological Cell Function and Activity” (GARGILL INCORPORATED, priority 2012, published 2015)

Key:
HUVEC cells [1] = assay: Oxidative damage: protein carbonyls in HUVEC; assay type: cell-based, human; details: HG 30 mM glucose 24 h, with or without 5 mM ERT/MAN
Protocol: The prepared cells were seeded in 6 well plates and T75 flasks and grown until 80% confluence. The medium was removed, and the cells were washed with Hank's Balanced Salt Solution (HBSS). […] The vehicle solution is the solvent for the test compounds, in this case being the medium without supplements. […] The cells described above were also incubated for 24 hours with a 7 mM, normal glucose (NG) solution or in some instances, with a 15 mM, intermediary glucose (IG) solution. See, for example, FIG. 6. Subsequently, the cells were incubated for 24 hours. The same protocol was used for incubation with Nε-(carboxymethyl)lysine (CML, final concentration 1 micromolar) and 1,3-morpholino sidnonimine (SIN-1, final concentration 0.5 mM). […] Hyperglycemia is strongly associated with oxidative stress, an imbalance between the formation of reactive oxygen species and the present antioxidants. Excess reactive oxygen species react with critical cellular targets, viz. membrane lipids, proteins and (deoxy)ribonucleic acids. […] Accordingly, one of the targeted assays included studying a comparison of HG to HGERT conditions, where the oxidative damage was evaluated showing that the protein carbonyls decreased from 6.55 nM/mg protein with HG to 3.77 with […]=0.089). Protein carbonyls are end products of reactions between proteins and reactive oxygen species (ROS), formed during oxidative stress. […]

HUVEC cells [2] = details: ERT by itself, non-diabetic conditions; cited from earlier work
[3] = test system: Beta cells (Cell line: HIT-T15); assay: HIT-T15 beta cell viability (trypan blue, Countess); assay type: cell-based; details: 6, 15 or 30 mM glucose 24 hours, with or without 5 mM ERT
Protocol: Beta cells (Cell line: HIT-T15) were obtained from supplier ATCC. The cells were seeded in 24 well plate (300,000 cells/well). After overnight attaching, the medium was removed and the cells were washed with HBSS. […] After 1 hour incubation, glucose solution was added to a final concentration of 6, 15, or 30 mM in the wells. Subsequently, the cells were incubated for 24 hours. After incubation, all cell material including medium and HBSS was collected and centrifuged (5 minutes, 500×g). The supernatant was removed and the cells were resuspended in 500 μl HBSS. The cell suspensions were diluted 1:1 in 0.4% trypan blue dye and loaded in a Countess Chamber. The cells were counted using the Countess cell counter, which calculated the viability (function and activity) of the cells.

SMILES: OC[C@@H](O)[C@@H](O)CO [ERT, meso-1,2,3,4-tetrahydroxybutane]
- protein carbonyls (HUVEC cells [1]): 3.77 nM/mg protein
- viability, oxidative damage, SOD activity, nitric oxide production, adhesion molecule production, transcriptome (HUVEC cells [2]): did not show changes
- viability (function and activity) of HIT-T15 cells [3]: attenuated this decrease significantly
